Test results taken from publication PMC3885546, “Structural Determinants of the 5′-Methylthioinosine Specificity of Plasmodium Purine Nucleoside Phosphorylase” (PLoS ONE, 2014).
Where a chain is given by its changes, count along the chain named. Read-outs that look alike come from different tables or passages of the source.

Experiments:
Test in all cases: Substrate kinetics, coupled assay
Assay type in all cases: biochemical
[1] = target: T1, PfPNP Val66Phe (Plasmodium falciparum, UniProt Q8I3X4, V66F); design: key to Km / kcat / kcat/Km: (-): Activity not detected under the experimental conditions; conditions: for Km / kcat / kcat/Km: substrate = label
T1 construct: made in house; host or cells: Escherichia coli Top 10
T1 sequence (Q8I3X4 1-245 V66F): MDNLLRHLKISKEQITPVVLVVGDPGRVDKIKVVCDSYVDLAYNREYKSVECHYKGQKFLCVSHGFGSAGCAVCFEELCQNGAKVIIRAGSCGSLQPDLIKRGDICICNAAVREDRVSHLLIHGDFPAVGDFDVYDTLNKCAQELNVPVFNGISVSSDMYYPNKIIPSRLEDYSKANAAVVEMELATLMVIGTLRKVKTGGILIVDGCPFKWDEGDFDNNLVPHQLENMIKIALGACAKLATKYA
Procedure: (§1) Kinetic assays were completed in 50 mM KH2PO4 at pH 7.4 measuring phosphorylysis of inosine or MTI by PNP in a coupled reaction with 60 milliunits/ml xanthine oxidase to convert hypoxanthine to uric acid. Formation of uric acid was measured at 293 nm wavelength (E293 = 12.9 mM^−1 cm^−1), [20]. In cases where activity for MTI was low, increased protein concentration (10 µg/ml) was used to check enzyme function. Assays were performed with excess substrate in the presence of inhibitors. Inhibition studies measured both initial (Ki) and slow onset inhibition (Ki*) for inhibitors. The initial onset inhibition was analyzed by using the following equation: ν ο = (k cat×S)/(K m(1+I/Ki)+S), ν ο is the steady state rate, k cat catalytic rate, S is substrate concentration, Km is Michealis constant for inosine, I is inhibitor concentration, and Ki is the equilibrium dissociation constant.

[2] = target: T2, PfPNP His7Ala (Plasmodium falciparum, UniProt Q8I3X4, H7A); conditions: for Km / kcat: substrate = label
T2 construct: made in house; host or cells: Escherichia coli Top 10
T2 sequence (Q8I3X4 1-245 H7A): T1 sequence (Q8I3X4 1-245 V66F) with H7A, F66V
Procedure: as §1

[3] = target: T3, PfPNP Tyr160Ala (Plasmodium falciparum, UniProt Q8I3X4, Y160A); conditions: for Km / kcat / reduced catalytic efficiency compared to wild-type PfPNP: substrate = label
T3 construct: made in house; host or cells: Escherichia coli Top 10
T3 sequence (Q8I3X4 1-245 Y160A): T1 sequence (Q8I3X4 1-245 V66F) with F66V, Y160A
Procedure: as §1

[4] = target: T4, PfPNP Tyr160Phe (Plasmodium falciparum, UniProt Q8I3X4, Y160F); conditions: for Km / kcat: substrate = label
T4 construct: made in house; host or cells: Escherichia coli Top 10
T4 sequence (Q8I3X4 1-245 Y160F): T1 sequence (Q8I3X4 1-245 V66F) with F66V, Y160F
Procedure: as §1

[5] = target: T5, PfPNP Tyr47Ala (Plasmodium falciparum, UniProt Q8I3X4, Y47A); conditions: for Km / kcat: substrate = label
T5 construct: made in house; host or cells: Escherichia coli Top 10
T5 sequence (Q8I3X4 1-245 Y47A): T1 sequence (Q8I3X4 1-245 V66F) with Y47A, F66V
Procedure: as §1

[6] = target: T6, PfPNP Val66Ala (Plasmodium falciparum, UniProt Q8I3X4, V66A); conditions: for Km / kcat: substrate = label
T6 construct: made in house; host or cells: Escherichia coli Top 10
T6 sequence (Q8I3X4 1-245 V66A): T1 sequence (Q8I3X4 1-245 V66F) with F66A
Procedure: as §1

[7] = target: T7, PfPNP Val66Ile (Plasmodium falciparum, UniProt Q8I3X4, V66I)
T7 construct: made in house; host or cells: Escherichia coli Top 10
T7 sequence (Q8I3X4 1-245 V66I): T1 sequence (Q8I3X4 1-245 V66F) with F66I
Procedure: as §1

[8] = target: T8, PfPNP Val73Ser (Plasmodium falciparum, UniProt Q8I3X4, V73S); conditions: for Km / kcat: substrate = label
T8 construct: made in house; host or cells: Escherichia coli Top 10
T8 sequence (Q8I3X4 1-245 V73S): T1 sequence (Q8I3X4 1-245 V66F) with F66V, V73S
Procedure: as §1

Row | Molecule | kcat [1] | Km [2] [µM] | kcat [2] [s⁻¹] | Km [3] [µM] | kcat [3] [s⁻¹] | reduced catalytic efficiency compared to wild-type PfPNP [3] [fold] | Km [4] [µM] | kcat [4] [s⁻¹] | Km [5] [µM] | kcat [5] [s⁻¹] | Km [6] [µM] | kcat [6] [s⁻¹] | kcat ([7]; substrate = label) [s⁻¹] | Km [8] [µM] | kcat [8] [s⁻¹] | other results
1 | 5′-methylthioinosine | (-) | 2.6 ± 2 | 0.29 ± 0.21 | 200 ± 59 | 0.09 ± 0.01 | ~1000 | 44 ± 5 | 0.30 ± 0.04 | 960 | 0.02 ± 0 | 0.3 ± 0.4 | 0.12 ± 0.04 | 1.2 ± 0.7 | 2100 | 0.02 ± 0 | Km [1]: (-); kcat/Km [1]: (-); kcat/Km ([1]; listed as MTI): no detectable activity
2 | OC[C@H]1O[C@@H](n2cnc3c(O)ncnc32)[C@H](O)[C@@H]1O [Inosine, inosine] | 5.7 ± 3.4 s⁻¹ | 45 ± 7 | 1.1 ± 0.5 | 5400 ± 120 | 0.1 ± 0.0 | ~1000 | 2.5 ± 1.2 | 0.21 ± 0.02 | 200 | 0.04 ± 0.00 | 13 ± 10 | 2.4 ± 0.6 | 2.0 ± 0.2 | 5 | 0.2 ± 0.0 | Km greater than for wildtype PfPNP [1]: ~100 fold; Km ([1]; read-out: Km): 1500 ± 410 µM; Ino/MTI kcat/Km Ratio [2]: 2.2; Ino/MTI kcat/Km Ratio [3]: 0.5; Ino/MTI kcat/Km Ratio [4]: 12; Ino/MTI kcat/Km Ratio [5]: 9.3; Ino/MTI kcat/Km Ratio [6]: 0.5; Ino/MTI kcat/Km Ratio [7]: 1.4; Km ([7]; substrate = label): 16 ± 4 µM; Ino/MTI kcat/Km Ratio [8]: 4100
